Source: patent US11793849B2, “Method of Chinese herbal medicine extract used for treating multiple diseases caused by drug resistant bacteria infection” (priority 2016, dated 2023)
In brackets after ≈: the same amount, converted by molar mass. Read-outs that look alike come from different tables or passages of the source.

How the values were obtained:
MDRAB [1] = test: Checkerboard assay (combined-use MIC, FIC); assay type: cell-based, Acinetobacter baumannii; conditions: for FIC, all strains / MIC50 of the antibiotic after combined use / reduction of the antibiotic's MIC50 vs single use / reduction of the antibiotic's MIC90 vs single use / share of strains with FIC ≤ 0.5: 20 MDRABs; for MIC: Acinetobacter baumannii, read-out: single-use MIC
Procedure: Test methods of the sensibilization effects of the test product to similar antibiotics: it is operated by referring to a checkerboard assay recommended by NCCLS.
The checkerboard assay is performed in a 96-pore sterile culture plate.
Calculation of a Fractional Inhibitory Concentration (FIC): FIC=S20b combined-use MIC/S20b single-use MIC+antibiotic combined-use MIC/antibiotic single-use MIC. By calculating the FIC, the combined antibacterial interaction between the EA and the antibiotic is evaluated, with synergistic effect for FIC≤0.5, additive effect for 0.5<FIC≤1, indifferent effect for 1<FIC≤2 and antagonistic effect for FIC>2. According to a sterile growth pore, the optimum concentration ratio between the EA and the antibiotic is founded out. At last, the effect of the EA to strengthen the efficacy of the antibiotic is evaluated.

ATCC27853 = test: MIC determination, control strain; assay type: cell-based; conditions: read-out: MIC
Procedure: Determination methods of a Minimal Inhibitory Concentration (MIC) and a Minimum Bactericidal Concentration (MBC) of a test product: the MIC and the MBC of the Pithecellobium clypearia Benth water or ethanol extract to the MDRAB are determined by a microdilution broth method.

MDRAB [2] = test: MIC determination, microdilution broth method; assay type: cell-based, Acinetobacter baumannii
Procedure: Determination methods of a Minimal Inhibitory Concentration (MIC) and a Minimum Bactericidal Concentration (MBC) of a test product: the MIC and the MBC of the Pithecellobium clypearia Benth water or ethanol extract to the MDRAB are determined by a microdilution broth method. And it is operated by referring to the microdilution broth method recommended by National Committee for Clinical Laboratory Standards (NCCLS).

[3] = antibiotic with 60% ethanol extract
[4] = antibiotic with 95% ethanol extract
[5] = antibiotic with EA (10% ethanol extract)
[6] = antibiotic with EA (water extract)

Q: Which results are given for `CN(C)[C@@H]1C(O)=C(C(N)=O)C(=O)[C@@]2(O)C(O)=C3C(=O)c4c(O)cccc4[C@@](C)(O)[C@H]3C[C@@H]12` [TE, Tetracycline]?
A: FIC, all strains (MDRAB [1]; [3]): ≤ 1; MIC50 of the antibiotic after combined use (MDRAB [1]; [3]): 32 µg/mL; reduction of the antibiotic's MIC50 vs single use (MDRAB [1]; [3]): 87.5%; reduction of the antibiotic's MIC90 vs single use (MDRAB [1]; [3]): 75%; share of strains with FIC ≤ 0.5 (MDRAB [1]; [3]): 50%; FIC, all strains (MDRAB [1]; [4]): ≤ 1; MIC50 of the antibiotic after combined use (MDRAB [1]; [4]): 32 µg/mL; reduction of the antibiotic's MIC50 vs single use (MDRAB [1]; [4]): 87.5%; reduction of the antibiotic's MIC90 vs single use (MDRAB [1]; [4]): 75%; share of strains with FIC ≤ 0.5 (MDRAB [1]; [4]): 35%; FIC, all strains (MDRAB [1]; [5]): ≤ 1; MIC50 of the antibiotic after combined use (MDRAB [1]; [5]): 64 µg/mL; reduction of the antibiotic's MIC50 vs single use (MDRAB [1]; [5]): 75%; reduction of the antibiotic's MIC90 vs single use (MDRAB [1]; [5]): 50%; share of strains with FIC ≤ 0.5 (MDRAB [1]; [5]): 45%; FIC, all strains (MDRAB [1]; [6]): ≤ 1; MIC50 of the antibiotic after combined use (MDRAB [1]; [6]): 64 µg/mL; reduction of the antibiotic's MIC50 vs single use (MDRAB [1]; [6]): 75%; reduction of the antibiotic's MIC90 vs single use (MDRAB [1]; [6]): 75%; share of strains with FIC ≤ 0.5 (MDRAB [1]; [6]): 35%; MIC (MDRAB [1]; strain A4, EA=60% ethanol extract): 8 µg/mL; MIC (MDRAB [1]; strain A4, EA=95% ethanol extract): 8 µg/mL; MIC (MDRAB [1]; strain A5 (printed AS in tables A43, A45), EA=95% ethanol extract): 32 µg/mL; MIC (MDRAB [1]; strain A5, EA=60% ethanol extract): 32 µg/mL; MIC (MDRAB [1]; strain A15, EA=60% ethanol extract): 1020 µg/mL; MIC (MDRAB [1]; strain A15, EA=95% ethanol extract): 1020 µg/mL; combined-use MIC (MDRAB [1]; strain A1, EA (10% ethanol extract) with TE): 1 µg/mL; combined-use MIC (MDRAB [1]; strain A1, EA (60% ethanol extract) + TE combined): 1 µg/mL; combined-use MIC (MDRAB [1]; strain A1, EA (95% ethanol extract) + TE combined): 1 µg/mL; combined-use MIC (MDRAB [1]; strain A1, EA (water extract) with TE): 1 µg/mL; combined-use MIC (MDRAB [1]; strain A2, EA (10% ethanol extract) with TE): 64 µg/mL; combined-use MIC (MDRAB [1]; strain A2, EA (60% ethanol extract) + TE combined): 64 µg/mL; combined-use MIC (MDRAB [1]; strain A2, EA (95% ethanol extract) + TE combined): 64 µg/mL; combined-use MIC (MDRAB [1]; strain A3, EA (10% ethanol extract) with TE): 64 µg/mL; combined-use MIC (MDRAB [1]; strain A3, EA (60% ethanol extract) + TE combined): 32 µg/mL; combined-use MIC (MDRAB [1]; strain A3, EA (95% ethanol extract) + TE combined): 32 µg/mL; combined-use MIC (MDRAB [1]; strain A3, EA (water extract) with TE): 64 µg/mL; combined-use MIC (MDRAB [1]; strain A4, EA (10% ethanol extract) with TE): 2 µg/mL; combined-use MIC (MDRAB [1]; strain A4, EA (60% ethanol extract) + TE combined): 1 µg/mL; combined-use MIC (MDRAB [1]; strain A4, EA (95% ethanol extract) + TE combined): 1 µg/mL; combined-use MIC (MDRAB [1]; strain A4, EA (water extract) with TE): 2 µg/mL; combined-use MIC (MDRAB [1]; strain A5, EA (10% ethanol extract) with TE): 4 µg/mL; combined-use MIC (MDRAB [1]; strain A5, EA (60% ethanol extract) + TE combined): 8 µg/mL; combined-use MIC (MDRAB [1]; strain A5, EA (95% ethanol extract) + TE combined): 8 µg/mL; combined-use MIC (MDRAB [1]; strain A5, EA (water extract) with TE): 4 µg/mL; combined-use MIC (MDRAB [1]; strain A6, EA (10% ethanol extract) with TE): 64 µg/mL; combined-use MIC (MDRAB [1]; strain A6, EA (water extract) with TE): 64 µg/mL; combined-use MIC (MDRAB [1]; strain A8, EA (10% ethanol extract) with TE): 64 µg/mL; combined-use MIC (MDRAB [1]; strain A8, EA (60% ethanol extract) + TE combined): 32 µg/mL; combined-use MIC (MDRAB [1]; strain A8, EA (95% ethanol extract) + TE combined): 32 µg/mL; combined-use MIC (MDRAB [1]; strain A9, EA (10% ethanol extract) with TE): 32 µg/mL; combined-use MIC (MDRAB [1]; strain A9, EA (60% ethanol extract) + TE combined): 32 µg/mL; combined-use MIC (MDRAB [1]; strain A9, EA (95% ethanol extract) + TE combined): 32 µg/mL; combined-use MIC (MDRAB [1]; strain A9, EA (water extract) with TE): 64 µg/mL; combined-use MIC (MDRAB [1]; strain A10, EA (10% ethanol extract) with TE): 32 µg/mL; combined-use MIC (MDRAB [1]; strain A10, EA (60% ethanol extract) + TE combined): 32 µg/mL; combined-use MIC (MDRAB [1]; strain A10, EA (95% ethanol extract) + TE combined): 32 µg/mL; combined-use MIC (MDRAB [1]; strain A10, EA (water extract) with TE): 64 µg/mL; combined-use MIC (MDRAB [1]; strain A11, EA (10% ethanol extract) with TE): 64 µg/mL; combined-use MIC (MDRAB [1]; strain A11, EA (60% ethanol extract) + TE combined): 32 µg/mL; combined-use MIC (MDRAB [1]; strain A11, EA (95% ethanol extract) + TE combined): 32 µg/mL; combined-use MIC (MDRAB [1]; strain A11, EA (water extract) with TE): 64 µg/mL; combined-use MIC (MDRAB [1]; strain A14, EA (60% ethanol extract) + TE combined): 32 µg/mL; combined-use MIC (MDRAB [1]; strain A14, EA (95% ethanol extract) + TE combined): 32 µg/mL; combined-use MIC (MDRAB [1]; strain A14, EA (water extract) with TE): 32 µg/mL; combined-use MIC (MDRAB [1]; strain A15, EA (60% ethanol extract) + TE combined): 64 µg/mL; combined-use MIC (MDRAB [1]; strain A15, EA (95% ethanol extract) + TE combined): 64 µg/mL; combined-use MIC (MDRAB [1]; strain A15, EA (water extract) with TE): 64 µg/mL; combined-use MIC (MDRAB [1]; strain A16, EA (water extract) with TE): 64 µg/mL; combined-use MIC (MDRAB [1]; strain A17, EA (10% ethanol extract) with TE): 64 µg/mL; combined-use MIC (MDRAB [1]; strain A18, EA (60% ethanol extract) + TE combined): 64 µg/mL; combined-use MIC (MDRAB [1]; strain A19, EA (water extract) with TE): 64 µg/mL; combined-use MIC (MDRAB [1]; strain A20, EA (60% ethanol extract) + TE combined): 32 µg/mL; combined-use MIC (MDRAB [1]; strain A20, EA (95% ethanol extract) + TE combined): 32 µg/mL; combined-use MIC (MDRAB [1]; strain A20, EA (water extract) with TE): 64 µg/mL; MIC (ATCC27853; EA=10% ethanol extract): 8 µg/mL (≈ 18 µM); MIC (ATCC27853; EA=60% ethanol extract): 8 µg/mL (≈ 18 µM); MIC (ATCC27853; EA=95% ethanol extract): 8 µg/mL (≈ 18 µM); MIC (ATCC27853; EA=water extract): 8 µg/mL (≈ 18 µM); MIC (MDRAB [2]; Acinetobacter baumannii, strain A4, EA=60% ethanol extract, read-out: MIC): 8 µg/mL (≈ 18 µM); MIC (MDRAB [2]; Acinetobacter baumannii, strain A4, EA=95% ethanol extract, read-out: MIC): 8 µg/mL (≈ 18 µM); MIC (MDRAB [2]; Acinetobacter baumannii, strain A4, single use, EA=10% ethanol extract, read-out: MIC): 8 µg/mL (≈ 18 µM); MIC (MDRAB [2]; Acinetobacter baumannii, strain A4, single use, EA=water extract, read-out: MIC): 8 µg/mL (≈ 18 µM); MIC (MDRAB [2]; Acinetobacter baumannii, strain A5, EA=60% ethanol extract, read-out: MIC): 32 µg/mL (≈ 72 µM); MIC (MDRAB [2]; Acinetobacter baumannii, strain A5, EA=95% ethanol extract, read-out: MIC): 32 µg/mL (≈ 72 µM); MIC (MDRAB [2]; Acinetobacter baumannii, strain A5, single use, EA=10% ethanol extract, read-out: MIC): 32 µg/mL (≈ 72 µM); MIC (MDRAB [2]; Acinetobacter baumannii, strain A5, single use, EA=water extract, read-out: MIC): 32 µg/mL (≈ 72 µM); MIC (MDRAB [2]; strain A15, single use, EA=10% ethanol extract): 1024 µg/mL (≈ 2300 µM); MIC (MDRAB [2]; strain A15, single use, EA=water extract): 1024 µg/mL (≈ 2300 µM)
